The test system of series [1] is ants. Description: Tests with ants on pupal secretion and its tocopherol components. The format is in vivo, Crematogaster cerasi. The settings on record: E. borealis pupal secretion and components.
Series [2] has as its system ants of the genus Crematogaster. Description: Deterrency bioassays with predacious insects: ants. The format is in vivo. The conditions noted are these: synthetic samples. From the text:
(§1) Synthetic samples of macrocycles PAML 681, PAML 908, and PAML 1362 (structure 6 of FIG. 3, wherein m, n, o, p, q, and r=7) as well as mixtures of synthetic PAML 681 and Vitamin E acetate were used in bioassays with various predacious insects, for example, ladybird beetles (Harmonia axyridis) and ants of the genus Crematogaster.

In series [3] the test system is ladybird beetles (Harmonia axyridis). As to the kind of experiment: Deterrency bioassays with predacious insects: ladybird beetles. It is filed as in vivo. The conditions noted are these: synthetic samples.
From the text: as §1

The test system of series [4] is H. axyridis adults. Description: Feeding choice bioassay with ladybird beetle (treated vs control moth eggs). It is filed as in vivo, Harmonia axyridis. The conditions noted are these: choice test, moth eggs treated topically with ethyl ether solution vs ethyl ether only. The procedure:
The biological activity of synthetic PAML 681 was also evaluated in a feeding bioassay with a ladybird beetle. The bioassay was a choice test in which individual H. axyridis adults were presented with two offerings of an edible food item, for example, insect eggs of the moth Uthesisia ornatrix, of which one offering was treated by topical application of an ethyl ether solution of PAML 681, while the other offering (“control”) was treated with ethyl ether only. […] Similar experiments were performed with synthetic samples of PAML 908 and PAML 1362, as well as with mixtures of PAML 681 and alpha-tocopherol acetate.

The nature of series [5]: Isomerization (O-to-N acyl transfer) on storage, analysed by HPLC-MS. The format is physicochemical. The conditions noted are these: substantially pure samples stored at 25° C. for 2 days.
For series [6], the system named is Periplaneta americana (American cockroach). As to the kind of experiment: Irritancy tests with cockroaches. It is filed as in vivo.
The test system of series [7] is beetles (Carabidae). Description: Feeding tests with beetles (Carabidae). It is filed as in vivo.

`CC(=O)Oc1c(C)c(C)c2c(c1C)CCC(C)(CCC[C@H](C)CCC[C@H](C)CCCC(C)C)O2` (some centres unmarked) [vitamin E acetate, Vitamin E acetate]: the “deterrency in tests with ants” value in series [1] is “essentially inactive”.

For the compound `CC1CCCCCCCCC(=O)OCCNC(C)CCCCCCCCC(=O)OCCNC(C)CCCCCCCCC(=O)OCCNC(C)CCCCCCCCC(=O)OCCN1` (centres unmarked) [PAML 908], the “activity as insect deterrent” value in series [2] and in series [3] was “highly active as insect deterrents” throughout. Besides, in series [4], the antifeedant activity entry is on record as “strong antifeedant activity”. Also, in series [5], the “monoamide formed (relative percentage of the total ion current)” value was 10%.

On to `CC1CCCCCCCCC(=O)OCCNC(C)CCCCCCCCC(=O)OCCNC(C)CCCCCCCCC(=O)OCCN1` (centres unmarked) [PAML 681], for which the “activity as insect deterrent” value in series [2] and in series [3] was “highly active as insect deterrents” each time. Moreover, the antifeedant activity result in series [4] is recorded as “strong antifeedant activity”. Moreover, the “monoamide formed (relative percentage of the total ion current)” value in series [5] is given as 7%. Further, the “insect repellent and deterrent activity (irritancy)” value in series [6] is “strong insect repellent and deterrent”. For the same compound, the “insect repellent and deterrent activity” value in series [7] is “strong insect repellent and deterrent”.

The values above are taken from patent publication US6384026B1, “Macrocyclic polyamine lactones and derivatives thereof and their use as arthropod repellents” (Cornell Research Foundation, Inc., priority 1998, dated 2002).
